Tested on: kodecytes
Experiment: Complement induced cell lysis of kodecytes in pooled AB serum
Assay type: cell-based
Settings: for Abs 1: duplicate 1; for Abs 2: duplicate 2; for (A1 and A2): from duplicates; for Sensitivity of kodecytes to lysis compared with kodecytes prepared using construct 49: complement mediated autolysis; for Calculated %: percentage of cells lysed using standard curve; for Measured %: percentage of cells lysed, construct 49 set as 100; for Degree of lysis: qualitative
Description: Preparation of kodecytes Stock solutions of constructs (35, 47, 48 and 49) were prepared at a concentration of 1 mg/mL in a red blood cell (RBC) preservative solution (CELPRESOL™, CSL Limited). Prior to dilution each stock solution was vortexed for 45 seconds at room temperature (r.t.). A volume of 100 μL of diluted stock solution was added to a volume of 100 μL centrifugally packed RBCs (packed cell volume; PCV). The total volume of 200 μL suspended RBCs was incubated at 37° C. for 2 hours before washing with CELPRESOL™ and re-suspending the modified RBCs (“kodecytes”) at a concentration of 5% PCV in CELPRESOL™.
Prior to use kodecytes were washed and re-suspended 5% PCV in phosphate buffered saline (PBS). Uniformity of concentration of RBCs was confirmed by adding a volume of 40 μL of kodecyte suspension to a volume of 1 mL of Drabkins solution and the absorbance measured at 540 nm against Drabkins solution (blank). Variations in measured absorbances was reduced to less than 10% by adjustment of suspending volume.
The ability of constructs to induce complement mediated autolysis was evaluated by a method analogous to that described in the publication of Henry and Komarraju (2012). For the present studies kodecytes prepared using construct 49 were used as a 100% lysis control. A volume of 200 μL pooled AB serum and a volume of 100 μL kodecytes prepared using construct 49 at a concentration of 750 μg/mL was used as the 100% lysis control. A volume of 200 μL pooled AB serum and a volume of 100 μL O group RBCs (prepared as kodecytes without the addition of construct) was used as the 0% lysis control. To measure the ability of constructs to induce complement mediated autolysis of kodecytes volumes of 200 μL of pooled AB serum were dispensed into duplicate sets of test tubes. A volumes of 100 μL kodecytes was added to the tubes before incubation at 37° C. for 1 hour. Following incubation a volume of 1 μL ethylenediaminetetraacetic acid (EDTA) as its dipotassium salt
was added to each to each test tube to provide a final concentration of 0.1 mM EDTA. The test tubes were then centrifuged and the characteristics of the sedimented RBCs and supernatant observed (Table 2 and FIG. 2). In addition a volume of 160 μL of the cell free supernatant was removed and added to a volume of 1 mL of Drabkins solution. The absorbance of the solution was then measured at 540 nm against a volume of 160 μL pooled AB serum added to a volume of 1 mL of Drabkins solution (blank). The absorbance of the supernatant was calculated as a percentage of the initial absorbance of the suspension of kodecytes. The percentage of cells lysed was calculated against a standard curve.

[1] = absorbance 540 nm of supernatant, concentration not given
[2] = absorbance 540 nm, concentration not given
[3] = pooled AB serum, 37° C., 1 hour, construct concentration not given
[4] = absorbance 540 nm, 100% lysis control (construct 49 at 750 μg/mL)

CCCCCCCC/C=C\CCCCCCCC(=O)OCC(COP(=O)(O)OCCNC(=O)CCCCC(=O)NCCCO[C@@H]1OC(CO)[C@@H](O[C@@H]2OC(CO)[C@H](O)C(O[C@H]3OC(CO)[C@H](O)C(O)C3NC(C)=O)C2O)C(O)C1NC(C)=O)OC(=O)CCCCCCC/C=C\CCCCCCCC (stereo partly shown) [construct 48, GalNAcα1-3Galβ1-4GlcNAc-Ad-DOPE]
Abs 1 [1]: .349 | Abs 2 [1]: .345 | (A1 and A2) [2]: .347 | Sensitivity of kodecytes to lysis compared with kodecytes prepared using construct 49 (pooled AB serum): approximately twice as sensitive | Calculated % (concentration not given): 95% | Measured % (concentration not given): 190% | Degree of lysis [3]: Complete

Galili-CMG2-Ad-DOPE [construct 47]
Abs 1 [1]: .224 | Abs 2 [1]: .243 | (A1 and A2) [2]: .234 | Sensitivity of kodecytes to lysis compared with kodecytes prepared using construct 49 (pooled AB serum): somewhat more sensitive | Calculated % (concentration not given): 65% | Measured % (concentration not given): 128% | Degree of lysis [3]: Partial

Galα1-3Galβ1-4GlcNAc-Ad-DOPE [construct 49]
Abs 1 [1]: .178 | Abs 2 [1]: .187 | Abs 1 [4]: .303 | Abs 2 [4]: .310 | (A1 and A2) [4]: .307 | (A1 and A2) [2]: .183 | Calculated % (100% lysis control (construct 49 at 750 μg/mL)): 85% | Calculated % (concentration not given): 51% | Measured % (concentration not given): Set as 100% | Degree of lysis (100% lysis control: kodecytes prepared using construct 49 at 750 μg/mL): Complete | Degree of lysis [3]: Partial

— US20210139540A1, “MULTIVALENT LIGAND-LIPID CONSTRUCTS” (priority 2014, published 2021)
